For 2 compounds, Ki results are on record in BindingDB's records for doi:10.1124/jpet.104.079301 (University of Li&Eagrove;Ge, 2005).

For the experiment, the target named is Thromboxane A2 receptor (Homo sapiens, UniProt P21731).
Chain of Thromboxane A2 receptor (P21731 as listed by the source): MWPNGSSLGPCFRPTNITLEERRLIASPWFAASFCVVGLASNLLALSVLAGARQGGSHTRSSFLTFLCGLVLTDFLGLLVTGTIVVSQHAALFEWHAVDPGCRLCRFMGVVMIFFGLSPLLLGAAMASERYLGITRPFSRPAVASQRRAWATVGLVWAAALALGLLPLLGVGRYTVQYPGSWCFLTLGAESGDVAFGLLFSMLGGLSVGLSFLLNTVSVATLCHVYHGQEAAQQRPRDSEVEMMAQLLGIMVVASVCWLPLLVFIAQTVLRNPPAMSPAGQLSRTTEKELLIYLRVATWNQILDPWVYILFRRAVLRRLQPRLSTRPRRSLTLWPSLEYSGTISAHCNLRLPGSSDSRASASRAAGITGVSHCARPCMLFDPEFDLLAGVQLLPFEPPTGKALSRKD

In the case of `CCCCCNC(=O)NS(=O)(=O)c1cc([N+](=O)[O-])ccc1Nc1ccc(C)cc1`, the Ki (as a rule, a measure of affinity in units of concentration, obtained from inhibition or displacement) was found to be 3.1 nM.
In the case of `Cc1ccc(Nc2ccc([N+](=O)[O-])cc2S(=O)(=O)NC(=O)NC(C)(C)C)cc1` [BM 573], the Ki is 0.8 nM.
